Assays:
[1] = Pharmacokinetics after single ear canal administration: concentration in perilymph (Examples 1 and 2)
Experimental: Pharmacokinetics study of different active agents has been conducted with ready-to-use formulations. The pharmacokinetic study consists of a single administration up to the eardrum on male Long Evans rats and assessment of the level of the active agent in middle ear area (tympanic bulla) and in the inner ear area (perilymph).
2. Route of administration: 20 μl of each formulation are delivered in the ear canal of one animal in one administration.
3. Animals: 6 male rats Long Evans, were obtained from Janvier Labs, Le Genest St Isle, 53941 St Berthevin, France. Acclimation Animals arrived on site at least 5 days before the experiment to allow optimal acclimation. Selection Animal health was examined on the day before starting the study, to ensure that only animals in good health were selected to enter the testing procedures. Identification: At the beginning of the study, animals were identified with a number on the tail. Each cage was labelled with a record card, indicating the test compound, the dose of administration and the identification of the animals Housing: Rats were housed in cages (1354G (Tecniplast, Lyon), dim 595*380 mm (w*d)), in a room where the air was continuously filtered, thereby avoiding any contamination. During experiments, rats were caged in groups of five (300-400 g) at a constant temperature with a day/night cycle of 12/12 hours. Animals received water (autoclaved water) and nutrition (ref A04C10), ad libitum.
4. Treatment and study design: The treatment was delivered into the ear canal and on the tympanic membrane on anesthetized rats (2.5% isoflurane). The exact volume of administration was determined during this first test and delivered (volume of 20 μL). Both ears were treated. After administration, the animal was kept on a heating pad for 5 minutes, positioned on its side to allow the compound to diffuse through the tympanic membrane. Then the second ear were administered, and the animal kept on its side for 5 minutes. Finally, the animal was kept on a ventral position until its recovery from anesthesia. The diffusion trough the tympanic membrane and into the inner ear and was assessed with the dosage of the perilymph sampling. Tympanic bulla sampling technique: After sacrifice of the rats, the right tympanic bulla was collected from each animal and transferred to an Eppendorf tube, weighed individually and frozen at −20° C. until analysis. Perilymph sampling technique: After sacrifice of the rats and extraction of the tympanic bulla from the left ear, a volume of about 1 μL of cochlear fluid at the base of the cochlea was sampled ex vivo. Tubes were weighed individually before and after sampling, and immediately transferred to a −20° C. freezer.
5. Bioanalysis: The concentration of each compound in the perilymph and in the tympanic bulla was quantified using an exploratory LC/MS-MS assay method in outsourcing laboratory (Eurofins Vergeze, France). The concentration of amitriptyline in plasma was assessed.
The same materials and methods were used as in Example 1.

[2] = Further pharmacokinetics study, apricot oil formulations: concentration in perilymph (Example 3); type: in vivo, male Long Evans rats
Experimental: Apricot oil is present in the formulation as a solubilizing agent. α-(-)-bisabolol is used as diffusing agent. […] 2. […] 3. […] 4. […] Both ears were treated. […] 5. […]

[3] = Pharmacokinetics after single ear canal administration: concentration in plasma; type: in vivo, male Long Evans rats; conditions: from 1 to 8 hours after administration
Experimental: 2. […] 3. […] Animals received water (autoclaved water) and nutrition (ref […]), ad libitum. 4. […] Both ears were treated. […] Perilymph sampling technique: […] […] 5. […] The concentration of amitriptyline in plasma was assessed.

[4] = after 8 hours from the administration onto the tympanic membrane, Example 3 conclusion
[5] = after 8 hours from the administration onto the tympanic membrane, Example 1 conclusion

Row | SMILES | Presence within the inner ear (perilymph) ([1]; rat, in vivo) | Presence within the inner ear (perilymph) [1, 5] | further results
1 | CCCN(CCC)CCc1cccc2c1CC(=O)N2 [ropinirole] | present | – | –
2 | O=c1cc(-c2ccccc2)oc2c(O)c(O)ccc12 [7,8-dihydroxyflavone] | present | – | Presence within the inner ear (perilymph) ([2]; rat, in vivo): present
3 | CCCN[C@H]1CCc2nc(N)sc2C1 [pramipexole] | present | – | –
4 | CCN(CC)CC(=O)Nc1c(C)cccc1C [lidocaine] | – | – | Presence within the inner ear (perilymph) [2, 4]: present
5 | CN(C)CCC=C1c2ccccc2CCc2ccccc21 [amitriptyline] | present | – | Presence in plasma [3]: present in plasma
6 | C=C(C)[C@@H]1CCC(C)=C[C@H]1c1c(O)cc(CCCCC)cc1O [cannabidiol] | – | present | –
7 | C[C@@H]1C[C@H]2[C@@H]3CCC4=CC(=O)C=C[C@]4(C)[C@@]3(F)[C@@H](O)C[C@]2(C)[C@@]1(O)C(=O)CO [dexamethasone] | present | – | Presence within the inner ear (perilymph) [2, 4]: present
8 | CC(C)c1cc2[nH]c(=O)n(NS(C)(=O)=O)c(=O)c2cc1-c1ccnn1C [selurampanel] | – | present | –
9 | COc1ccc2c(c1)[C@]13CCCC[C@@H]1[C@H](C2)N(C)CC3 [dextromethorphan] | – | present | –
10 | CC1CCCCC1(c1cccs1)N1CCCCC1 (stereo not shown) [gacyclidine] | – | present | –

Source: US20240016766A1, “PHARMACEUTICAL COMPOSITION FOR TREATMENT OF INNER EAR DISORDERS THROUGH LOCAL ADMINISTRATION IN THE TYMPANIC AREA” (priority 2020, published 2024)
